Experimental data taken from patent US20240317800A1, “NOVEL COMPOUNDS AND ANTIBACTERIAL COMPOSITION COMPRISING THE SAME” (KOREA INSTITUTE OF OCEAN SCIENCE & TECHNOLOGY, priority 2022, published 2024).

system: Mycoplasma hyorhinis ATCC 17981; assay: Mycoplasma inhibitory activity, broth dilution assay (MIC); assay type: cell-based; conditions: ATCC17981, 168 h, PPLO liquid medium, 7 days, 37° C., 5% CO2, lowest concentration at which bacteria did not grow, read-out: MIC (minimum inhibitory concentration)
Description: For compounds 1 to 3, the inhibitory activity against Mycoplasma hyorhinis was evaluated using a broth dilution assay. Briefly, an experimental strain Mycoplasma hyorhinis ATCC 17981 was cultured in a PPLO liquid medium at 37° C. in a 5% CO2 incubator. […] 100 μL of the culture medium, which made with the strain suspension at approximately 2×10^4 CFU/mL, was added to each well of a 96-well plate. The plates were incubated for 7 days in a 37° C., 5% CO2 incubator. As the bacteria grew, the medium turned yellow. […] BioMycoX® (CellSafe, Korea) was used as a positive control.

MIC, 31 µg/mL:
CCCCCCCCCCC[C@@H]1CC(=O)N[C@@H](CCC(=O)O)C(=O)N[C@@H](CC(C)C)C(=O)N[C@H](CC(C)C)C(=O)N[C@@H](CC(C)C)C(=O)O1 [Compound 1, Bacilotetrin C]
CCC(C)CCCCCCCC[C@@H]1CC(=O)N[C@@H](CCC(=O)O)C(=O)N[C@@H](CC(C)C)C(=O)N[C@H](CC(C)C)C(=O)N[C@@H](CC(C)C)C(=O)O1 (stereo partly drawn) [Compound 2, Bacilotetrin D]
CC(C)CCCCCCCCC[C@@H]1CC(=O)N[C@@H](CCC(=O)O)C(=O)N[C@@H](CC(C)C)C(=O)N[C@H](CC(C)C)C(=O)N[C@@H](CC(C)C)C(=O)O1 [Compound 3, Bacilotetrin E]
